Measurements taken from paper PMC9848257, “Design and synthesis of novel rigid dibenzo[b,f]azepines through ring closure technique as promising anticancer candidates against leukaemia and acting as selective topoisomerase II inhibitors and DNA intercalators” (Journal of Enzyme Inhibition and Medicinal Chemistry, 2023).

What was measured:
[1] = test system: UO-31; assay: NCI-60 one-dose screen, UO-31; assay type: cell-based; settings: Homo sapiens; UO-31, renal cancer; single dose 10 μM; read-out: Growth inhibition %
Description: (§1) Anti-proliferative effects of the counterparts 4a–g and 5a–g were screened against 60 human cancer cell lines, following the Developmental Therapeutics Program protocol, National Cancer Institute[35].
(§2) The anti-tumour activity of the fourteen synthesised congeners was investigated at the NCI against a panel of 60 cancer cell lines (NCI-60 Cell One-Dose Screen). The tested dibenzo[b,f]azepine derivatives were screened at a single dose level (10 μM), Table 1.

[2] = test system: CCRF-CEM; assay: NCI-60 one-dose screen, CCRF-CEM; assay type: cell-based; settings: Homo sapiens, leukaemia, single dose 10 μM, read-out: Growth inhibition %
Description: as §1, §2

[3] = test system: HCT-15; assay: NCI-60 one-dose screen, HCT-15; assay type: cell-based; settings: Homo sapiens; HCT-15, colon cancer; single dose 10 μM; read-out: Growth inhibition %
Description: as §1, §2

[4] = test system: CAKI-1; assay: NCI-60 one-dose screen, CAKI-1; assay type: cell-based; settings: Homo sapiens; CAKI-1, renal cancer; single dose 10 μM; read-out: Growth inhibition %
Description: as §1, §2

[5] = test system: COLO 205; assay: NCI-60 one-dose screen, COLO 205; assay type: cell-based; settings: Homo sapiens; COLO 205, colon cancer; single dose 10 μM; read-out: Growth inhibition %
Description: as §1, §2

[6] = test system: 786-0; assay: NCI-60 one-dose screen, 786-0; assay type: cell-based; settings: Homo sapiens; 786-0, renal cancer; single dose 10 μM; read-out: Growth inhibition %
Description: as §1, §2

[7] = test system: UACC-257; assay: NCI-60 one-dose screen, UACC-257; assay type: cell-based; settings: Homo sapiens; UACC-257, melanoma; single dose 10 μM; read-out: Growth inhibition %
Description: as §1, §2

[8] = test system: OVCAR-5; assay: NCI-60 one-dose screen, OVCAR-5; assay type: cell-based; settings: Homo sapiens; OVCAR-5, ovarian cancer; single dose 10 μM; read-out: Growth inhibition %
Description: as §1, §2

[9] = test system: OVCAR-4; assay: NCI-60 one-dose screen, OVCAR-4; assay type: cell-based; settings: Homo sapiens; OVCAR-4, ovarian cancer; single dose 10 μM; read-out: Growth inhibition %
Description: as §1, §2

[10] = test system: TK-10; assay: NCI-60 one-dose screen, TK-10; assay type: cell-based; settings: Homo sapiens; TK-10, renal cancer; single dose 10 μM; read-out: Growth inhibition %
Description: as §1, §2

[11] = test system: HOP-62; assay: NCI-60 one-dose screen, HOP-62; assay type: cell-based; settings: Homo sapiens; HOP-62, non-small cell lung cancer; single dose 10 μM; read-out: Growth inhibition %
Description: as §1, §2

[12] = test system: K-562; assay: NCI-60 one-dose screen, K-562; assay type: cell-based; settings: Homo sapiens, K562; K-562, leukaemia; single dose 10 μM; read-out: Growth inhibition %
Description: as §1, §2

[13] = test system: NCI-H522; assay: NCI-60 one-dose screen, NCI-H522; assay type: cell-based; settings: Homo sapiens; NCI-H522, non-small cell lung cancer; single dose 10 μM; read-out: Growth inhibition %
Description: as §1, §2

[14] = test system: DU-145; assay: NCI-60 one-dose screen, DU-145; assay type: cell-based; settings: Homo sapiens; DU-145, prostate cancer; single dose 10 μM; read-out: Growth inhibition %
Description: as §1, §2

[15] = test system: NCI-H322M; assay: NCI-60 one-dose screen, NCI-H322M; assay type: cell-based; settings: Homo sapiens, non-small cell lung cancer, single dose 10 μM, read-out: Growth inhibition %
Description: as §1, §2

[16] = test system: SNB-19; assay: NCI-60 one-dose screen, SNB-19; assay type: cell-based; settings: Homo sapiens; SNB-19, CNS cancer; single dose 10 μM; read-out: Growth inhibition %
Description: as §1, §2

[17] = test system: NCI-H226; assay: NCI-60 one-dose screen, NCI-H226; assay type: cell-based; settings: Homo sapiens; NCI-H226, non-small cell lung cancer; single dose 10 μM; read-out: Growth inhibition %
Description: as §1, §2

[18] = test system: UACC-62; assay: NCI-60 one-dose screen, UACC-62; assay type: cell-based; settings: Homo sapiens; UACC-62, melanoma; single dose 10 μM; read-out: Growth inhibition %
Description: as §1, §2

[19] = test system: U251; assay: NCI-60 one-dose screen, U251; assay type: cell-based; settings: Homo sapiens, U-251; U251, CNS cancer; single dose 10 μM; read-out: Growth inhibition %
Description: as §1, §2

[20] = test system: ACHN; assay: NCI-60 one-dose screen, ACHN; assay type: cell-based; settings: Homo sapiens, renal cancer, single dose 10 μM, read-out: Growth inhibition %
Description: as §1, §2

[21] = test system: NCI-H23; assay: NCI-60 one-dose screen, NCI-H23; assay type: cell-based; settings: Homo sapiens; NCI-H23, non-small cell lung cancer; single dose 10 μM; read-out: Growth inhibition %
Description: as §1, §2

[22] = test system: MALME-3M; assay: NCI-60 one-dose screen, MALME-3M; assay type: cell-based; settings: Homo sapiens, melanoma, single dose 10 μM, read-out: Growth inhibition %
Description: as §1, §2

[23] = test system: MDA-MB-231-ATCC; assay: NCI-60 one-dose screen, MDA-MB-231-ATCC; assay type: cell-based; settings: Homo sapiens, breast cancer, single dose 10 μM, read-out: Growth inhibition %
Description: as §1, §2

[24] = test system: SK-MEL-5; assay: NCI-60 one-dose screen, SK-MEL-5; assay type: cell-based; settings: Homo sapiens; SK-MEL-5, melanoma; single dose 10 μM; read-out: Growth inhibition %
Description: as §1, §2

[25] = test system: MDA-MB-435; assay: NCI-60 one-dose screen, MDA-MB-435; assay type: cell-based; settings: Homo sapiens; MDA-MB-435, melanoma; single dose 10 μM; read-out: Growth inhibition %
Description: as §1, §2

[26] = test system: SK-OV-3; assay: NCI-60 one-dose screen, SK-OV-3; assay type: cell-based; settings: Homo sapiens; SK-OV-3, ovarian cancer; single dose 10 μM; read-out: Growth inhibition %
Description: as §1, §2

[27] = test system: NCI/ADR-RES; assay: NCI-60 one-dose screen, NCI/ADR-RES; assay type: cell-based; settings: Homo sapiens, ovarian cancer, single dose 10 μM, read-out: Growth inhibition %
Description: as §1, §2

[28] = test system: IGROV1; assay: NCI-60 one-dose screen, IGROV1; assay type: cell-based; settings: Homo sapiens, IGROV-1; IGROV1, ovarian cancer; single dose 10 μM; read-out: Growth inhibition %
Description: as §1, §2

[29] = test system: SK-MEL-2; assay: NCI-60 one-dose screen, SK-MEL-2; assay type: cell-based; settings: Homo sapiens; SK-MEL-2, melanoma; single dose 10 μM; read-out: Growth inhibition %
Description: as §1, §2

[30] = test system: RXF 393; assay: NCI-60 one-dose screen, RXF 393; assay type: cell-based; settings: Homo sapiens; RXF 393, renal cancer; single dose 10 μM; read-out: Growth inhibition %
Description: as §1, §2

[31] = test system: OVCAR-8; assay: NCI-60 one-dose screen, OVCAR-8; assay type: cell-based; settings: Homo sapiens; OVCAR-8, ovarian cancer; single dose 10 μM; read-out: Growth inhibition %
Description: as §1, §2

[32] = test system: HS 578 T; assay: NCI-60 one-dose screen, HS 578 T; assay type: cell-based; settings: Homo sapiens, breast cancer, single dose 10 μM, read-out: Growth inhibition %
Description: as §1, §2

[33] = test system: HCC-2998; assay: NCI-60 one-dose screen, HCC-2998; assay type: cell-based; settings: Homo sapiens; HCC-2998, colon cancer; single dose 10 μM; read-out: Growth inhibition %
Description: as §1, §2

Compound	melting point [°C]	inhibition at 10 µM [1] [%]	inhibition at 10 µM [2] [%]	inhibition at 10 µM [3] [%]	inhibition at 10 µM [4] [%]	inhibition at 10 µM [5] [%]	inhibition at 10 µM [6] [%]	inhibition at 10 µM [7] [%]	inhibition at 10 µM [8] [%]	inhibition at 10 µM [9] [%]	inhibition at 10 µM [10] [%]	inhibition at 10 µM [11] [%]	inhibition at 10 µM [12] [%]	inhibition at 10 µM [13] [%]	inhibition at 10 µM [14] [%]	inhibition at 10 µM [15] [%]	inhibition at 10 µM [16] [%]	inhibition at 10 µM [17] [%]	inhibition at 10 µM [18] [%]	inhibition at 10 µM [20] [%]	other results
O=C(NNC(=O)N1c2ccccc2C=Cc2ccccc21)c1ccc([N+](=O)[O-])cc1 [Compound 4e, N′-(4-Nitrobenzoyl)-5H-dibenzo[b,f]azepine-5-carbohydrazide]	241 to 243	< 10	< 10	< 10	< 10	< 10	< 10	< 10	< 10	< 10	10	< 10	< 10	< 10	< 10	< 10	< 10	< 10	< 10	< 10	inhibition at 10 µM [19]: < 10%; inhibition at 10 µM [21]: < 10%; inhibition at 10 µM [22]: < 10%; inhibition at 10 µM [23]: < 10%; inhibition at 10 µM [24]: < 10%; inhibition at 10 µM [25]: < 10%; inhibition at 10 µM [26]: < 10%; inhibition at 10 µM [27]: < 10%; inhibition at 10 µM [28]: < 10%; inhibition at 10 µM [29]: < 10%; inhibition at 10 µM [30]: < 10%; inhibition at 10 µM [31]: < 10%; inhibition at 10 µM [32]: < 10%; inhibition at 10 µM [33]: < 10%
O=C(NNC(=O)N1c2ccccc2C=Cc2ccccc21)c1ccccc1 [Compound 4a, N′-Benzoyl-5H-dibenzo[b,f]azepine-5-carbohydrazide]	222 to 224	< 10	< 10	< 10	< 10	< 10	< 10	< 10	< 10	< 10	< 10	< 10	< 10	< 10	< 10	< 10	< 10	< 10	< 10	< 10	inhibition at 10 µM [19]: < 10%; inhibition at 10 µM [21]: < 10%; inhibition at 10 µM [22]: < 10%; inhibition at 10 µM [23]: < 10%; inhibition at 10 µM [24]: < 10%; inhibition at 10 µM [25]: < 10%; inhibition at 10 µM [26]: < 10%; inhibition at 10 µM [27]: < 10%; inhibition at 10 µM [28]: < 10%; inhibition at 10 µM [29]: < 10%; inhibition at 10 µM [30]: < 10%; inhibition at 10 µM [31]: < 10%; inhibition at 10 µM [32]: < 10%; inhibition at 10 µM [33]: < 10%
O=[N+]([O-])c1ccc(-c2nnc(N3c4ccccc4C=Cc4ccccc43)o2)cc1 [Compound 5e, 2-(5 h-Dibenzo[b,f]azepin-5-yl)-5–(4-nitrophenyl)-1,3,4-oxadiazole]	146 to 148	30.7	< 10	30.7	29.7	< 10	< 10	< 10	< 10	21.8	< 10	< 10	25.3	15	< 10	4.97	< 10	13.7	30	< 10	inhibition at 10 µM [21]: < 10%; inhibition at 10 µM [22]: < 10%; inhibition at 10 µM [23]: 15.3%; inhibition at 10 µM [24]: 13.7%; inhibition at 10 µM [25]: < 10%; inhibition at 10 µM [26]: < 10%; inhibition at 10 µM [27]: < 10%; inhibition at 10 µM [28]: < 10%; inhibition at 10 µM [29]: < 10%; inhibition at 10 µM [30]: < 10%; inhibition at 10 µM [31]: 1.15%; inhibition at 10 µM [32]: < 10%; inhibition at 10 µM [33]: < 10%
